# Read-outs that look alike come from different tables or passages of the source.
# How the values were obtained:
# L1210/TK^− = test: Cytostatic assay, thymidine kinase-deficient L1210/TK^− cells; type: cell-based, murine; settings: for CC50: L1210, Table 1, read-out: CC50 L1210/TK^−; for IC50: Table 6, read-out: IC50 L1210/TK^−
# L1210/0 = test: Cytostatic assay, L1210/0 cells; type: cell-based, murine; settings: for IC50: read-out: IC50 L1210/0
# From the text: (§1) The cell lines employed were L1210/0 (a leukemia cell line), FM3A/0 (a breast cancer cell line), Cem/0 (an acute lymphoblastic leukemia cell line) and HeLa (a cervical cell line).
# HeLa = test: Cytostatic assay, HeLa cells; type: cell-based; settings: for CC50: Table 1, read-out: CC50 HeLa; for IC50: Table 6, read-out: IC50 HeLa
# From the text: as §1
# L1210.Hyor = test: Cytostatic assay, Mycoplasma hyorhinis-infected L1210 cells; settings: for % Retention: CC50 L1210 × 100 ÷ CC50 L1210/Hyor; for CC50: L1210, read-out: CC50 L1210/Hyor
# From the text: Murine leukaemia L1210/0 and human T-lymphocyte CEM/0 cells were obtained from the American Type Culture Collection (ATCC) (Rockville, Md.). Human glioblastoma U87 cells were kindly provided by Dr. E. Menue (Institut Pasteur, Paris, France). […] S. Eriksson (currently at Uppsala University, Uppsala, Sweden) and Prof A. Karlsson (Karolinska Institute, Stockholm, Sweden). […] All cells were maintained in Dulbecco's modified Eagle's medium (DMEM) (Invitrogen, Carlsbad, Calif.) with 10% foetal bovine serum (FBS) (Biochrom AG, Berlin, Germany), 10 mM Hepes and 1 mM Sodium Pyruvate (Invitrogen). Cells were grown at 37° C. in a humidified incubator with a gas phase of 5% CO2.
# Monolayer cells (U87 and U87.Hyor) were seeded in 48-well microtiter plates (Nunc™, Roskilde, Denmark) at 10,000 cells/well. After 24 hours, an equal volume of fresh medium containing the test compounds was added. On day 5, cells were trypsinized and counted in a Coulter counter (Analis, Suarlée, Belgium). Suspension cells (L1210/0, L1210/TK^−, L1210.Hyor, CEM/0, CEM/TK^−) were seeded in 96-well microtiter plates (Nunc™) at 60,000 cells/well in the presence of a given amount of the test compounds. The cells were allowed to proliferate for 48 h (L1210) or 72 hours (CEM) and were then counted in a Coulter counter.
# Samples were also assayed for their % retention of activity in mycoplasma infected cells.
# The L1210/0 cell cultures were infected with the mycoplasma species M. hyorhinis (cells designated: L1210.Hyor).
# Cem/0 = test: Cytostatic assay, CEM/0 cells; type: cell-based, human; settings: for CC50: Table 1, read-out: CC50 Cem/0; for IC50: Table 6, read-out: IC50 Cem/0
# From the text: as §1
# HeLa/TK^− = test: Cytostatic assay, HeLa/TK^− cells; type: cell-based; settings: for CC50: Table 1, read-out: CC50 HeLa/TK^−; for IC50: Table 6, read-out: IC50 HeLa/TK^−
# From the text: as §1
# Cem/TK^− = test: Cytostatic assay, thymidine kinase-deficient CEM/TK^− cells; type: cell-based, human; settings: for CC50: Table 1, read-out: CC50 Cem/TK^−; for IC50: Table 6, read-out: IC50 Cem/TK^−
# [1] = Mus musculus, L1210/0, Table 1, read-out: CC50 L1210/0
# [2] = Mus musculus, L1210/0, Table 2, mycoplasma negative cells, read-out: CC50 L1210
# [3] = Mus musculus, L1210, read-out: IC50 L1210.Hyor
# [4] = read-out: IC50 L1210.Hyor, Table 7
SMILES,CC50 (L1210/TK^−; Mus musculus) [µM],"IC50 (L1210/TK^−; Mus musculus, L1210) [nM]",CC50 (L1210/0; [1]) [nM],CC50 (L1210/0; [2]) [nM],"IC50 (L1210/0; Mus musculus, L1210/0, Table 6) [nM]","IC50 (L1210/0; Mus musculus, L1210/0, Table 7) [nM]","CC50 (HeLa; Homo sapiens, HeLa) [nM]","IC50 (HeLa; Homo sapiens, HeLa) [nM]",% Retention (L1210.Hyor) [%],CC50 (L1210.Hyor; Mus musculus) [nM],IC50 (L1210.Hyor; [3]) [nM],IC50(L1210.Hyor)/IC50(L1210/0) (L1210.Hyor; Table 7),"CC50 (Cem/0; Homo sapiens, CCRF-CEM) [nM]","IC50 (Cem/0; Homo sapiens, CCRF-CEM) [nM]","CC50 (HeLa/TK^−; Homo sapiens, HeLa) [nM]","IC50 (HeLa/TK^−; Homo sapiens, HeLa) [µM]","CC50 (Cem/TK^−; Homo sapiens, CEM-TK(-)) [µM]","IC50 (Cem/TK^−; Homo sapiens, CEM-TK(-)) [µM]",IC50 (L1210/TK^−) [nM],IC50 (L1210/0; Table 6) [nM],further results
"CCCCOC(=O)[C@H](C)NP(=O)(OC[C@H]1O[C@@H](n2cc(F)c(=O)[nH]c2=O)CC1O)Oc1cccc2ccccc12 (stereo partly drawn) [CPF 589, 5-Fluoro-2′-deoxyuridine-5′-O-[1-naphthyl-(butoxy-L-alaninyl)] phosphate]",0.11 ± 0.06,110 ± 60,22 ± 4,20,22 ± 4,9.5 ± 2.1,120 ± 20,120 ± 20,32,63,21 ± 7.1,2.2,64 ± 7,64 ± 7,2700 ± 1500,2.7 ± 1.5,0.84 ± 0.6,0.84 ± 0.6,,,
"CCCCCOC(=O)[C@H](C)NP(=O)(OC[C@H]1O[C@@H](n2cc(F)c(=O)[nH]c2=O)CC1O)Oc1cccc2ccccc12 (stereo partly drawn) [CPF 581, 5-Fluoro-2′-deoxyuridine-5′-O-[1-naphthyl-(pentoxy-L-alaninyl)] phosphate]",0.13 ± 0.13,130 ± 130,2.8 ± 1,3.7,2.8 ± 1,2.1 ± 0.07,29 ± 23,29 ± 23,22,17,6 ± 1.4,2.9,15 ± 6,15 ± 6,440 ± 350,0.44 ± 0.35,0.28 ± 0.04,0.28 ± 0.04,,,
CCC(C)C(NP(=O)(OCC1OC(n2cc(F)c(=O)[nH]c2=O)CC1O)Oc1ccccc1)C(=O)OCc1ccccc1 (mixture of isomers) [Ph Bn Ile],,,,,,,,,,,,2.2,,,,,,,1100 ± 100,76 ± 22,IC50 (L1210/0; Table 7): 980 ± 390 nM; IC50 (HeLa): 710 ± 150 nM; IC50 (L1210.Hyor; [4]): 2200 ± 31 nM; IC50 (Cem/0): 1000 ± 100 nM; IC50 (HeLa/TK^−): 25 ± 11 µM; IC50 (Cem/TK^−): 30 ± 10 µM
CCCCCCOC(=O)C(C)NP(=O)(OCC1OC(n2cc(F)c(=O)[nH]c2=O)CC1O)Oc1cccc2ccccc12 (stereo not shown) [Nap Hex Ala],,,,,,,,,,,,0.69,,,,,,,76 ± 15,7.2,IC50 (L1210/0; Table 7): 3.2 ± 0.35 nM; IC50 (HeLa): 39 ± 18 nM; IC50 (L1210.Hyor; [4]): 2.2 ± 0.28 nM; IC50 (Cem/0): 80 ± 20 nM; IC50 (HeLa/TK^−): 1.8 ± 0.1 µM; IC50 (Cem/TK^−): 0.65 ± 0.34 µM
"C[C@H](NP(=O)(OC[C@H]1O[C@@H](n2cc(F)c(=O)[nH]c2=O)CC1O)Oc1cccc2ccccc12)C(=O)OC1CCOCC1 (stereo partly drawn) [CPF 580, 5-Fluoro-2′-deoxyuridine-5′-O-[1-naphthyl-(tetrahydropyroxy-L-alaninyl)]phosphate]",27 ± 6,27000 ± 6000,38 ± 14,48,38 ± 14,41 ± 2.8,130 ± 40,130 ± 40,12,410,480 ± 110,11.7,110 ± 20,110 ± 20,15000 ± 7000,15 ± 7,43 ± 12,43 ± 12,,,
"COC(=O)[C@H](C)NP(=O)(OC[C@H]1O[C@@H](n2cc(F)c(=O)[nH]c2=O)CC1O)Oc1ccccc1 (stereo partly drawn) [CPF 382, 5-Fluoro-2′-deoxyuridine-5′-O-[phenyl(methoxy-L-alaninyl)] phosphate, reference compound]",37.8,41000 ± 3000,25.5,,22 ± 7,40 ± 16,,280 ± 140,,,870 ± 280,22,346,700 ± 370,,4.7 ± 0.4,32.7,35 ± 12,,,
CC(C)CC(NP(=O)(OCC1OC(n2cc(F)c(=O)[nH]c2=O)CC1O)Oc1ccccc1)C(=O)OCc1ccccc1 (stereo not shown) [Ph Bn Leu],,,,,,,,,,,,3.2,,,,,,,2000 ± 300,44 ± 25,IC50 (L1210/0; Table 7): 54 ± 2.1 nM; IC50 (HeLa): 67 ± 42 nM; IC50 (L1210.Hyor; [4]): 170 ± 47 nM; IC50 (Cem/0): 240 ± 40 nM; IC50 (HeLa/TK^−): 5.6 ± 0.3 µM; IC50 (Cem/TK^−): 16 ± 1 µM

# — US10993957B2 (NuCana plc, priority 2011, dated 2021)
